US5534498A, “Trypsin inhibitors” (Corvas International, Inc., priority 1993, dated 1996)
Non-standard residues stand in square brackets, D forms with d. Residues, ends and D or L forms follow the SMILES beside them. *: point of attachment. Boc = CC(C)(C)OC(=O)*

Experiments:
[1] = biological target: recombinant tissue plasminogen activator (Homo sapiens, UniProt P00750); experiment: Tissue plasminogen activator assay (S-2288 substrate); assay type: biochemical; details: for IC50 / IC50 tPA: 30 min preincubation, room temperature, tested 0.025-25 μM, Inact. = no inhibition at highest concentration; for Calculated % Selectivity tPA: [IC50 for Trypsin/IC50 for other enzyme]×100, lower = more trypsin selective
Protocol: (§1) The specificity of the peptide aldehydes (8 through 12) was determined in vitro by measurement of their IC50 against other enzymes involved in hemostasis. A specific concentration of enzyme and its substrate were challenged with varying concentrations of inhibitor. […] Specific assay procedures used are presented below.
(§2) 96-well microtiter plates were prepared for use in these assays by incubating each well with 300 μL 1% bovine serum albumin (in deionized water) for 30 minutes at 37° C., then washing three times with deionized water.
(§3) The substrate was made up in deionized water prior to use.

human Factor Xa = biological target: T1, human Factor Xa (Homo sapiens, UniProt P00742); experiment: Factor Xa assay (Pefachrome Xa substrate); assay type: biochemical; details: for Calculated % Selectivity Xa: [IC50 for Trypsin/IC50 for other enzyme]×100, lower = more trypsin selective
T1 construct: 50 μL 30 nM human Factor Xa
Protocol: as §1, §2
Enzyme activity was determined using as substrate, Pefachrome Xa [N-methoxycarbonyl-D-cyclohexylalanyl-L-glycyl-L-arginine p-niroanilide acetate], purchased from Centerchem, Inc. The substrate was made up in deionized water prior to use.

human kallekrein = biological target: T2, human kallekrein (Homo sapiens, UniProt P03952); experiment: Kallikrein assay (S-2302 substrate); assay type: biochemical; details: for IC50: 30 min preincubation, room temperature, tested 0.025-25 μM, Inact. = no inhibition at highest concentration; for Calculated % Selectivity Kallikrein: [IC50 for Trypsin/IC50 for other enzyme]×100, lower = more trypsin selective
T2 construct: 50 μL of 4 to 9 nM human kallekrein
Protocol: as §1, §2, §3

bovine thrombin = biological target: T3, bovine thrombin (Bos taurus, UniProt P00735); experiment: Thrombin assay (S-2238 substrate); assay type: biochemical; details: for Calculated % Selectivity Thrombin: [IC50 for Trypsin/IC50 for other enzyme]×100, lower = more trypsin selective
T3 construct: 50 μL 20 nM bovine thrombin
Protocol: (§4) The specificity of the peptide aldehydes (8 through 12) was determined in vitro by measurement of their IC50 against other enzymes involved in hemostasis. A specific concentration of enzyme and its substrate were challenged with varying concentrations of inhibitor. IC50 is that concentration of inhibitor giving 50% inhibition of substrate turnover, under the assay conditions. Specific assay procedures used are presented below.
as §2
Enzyme activity was determined using as substrate, S-2238 [D-phenylalanyl-L-pipecolyl-L-arginine-p-nitroanilide dihydrochloride], purchased from Kabi Diagnostica. The substrate was made up in deionized water prior to use.
(§5) The assay was run by combining in appropriate wells 50 μL TBS and 50 μL inhibitor in TBS or TBS alone and 50 μL 20 nM bovine thrombin (or TBS as background control), incubating this mixture for 30 minutes at room temperature, adding 50 μL 1 mM S-2238, incubating for an additional 30 minutes at room temperature, then reading the absorbance of the wells at 405 nm on a microtiter plate reader set with background substraction at 650 nm.

plasmin = plasmin (Homo sapiens, UniProt P00747); experiment: Plasmin assay (S-2251 substrate); assay type: biochemical; set-up: 50 μL 25 nM human plasmin; details: for IC50: 30 min preincubation, room temperature, tested 0.025-25 μM, Inact. = no inhibition at highest concentration; for Calculated % Selectivity Plasmin: [IC50 for Trypsin/IC50 for other enzyme]×100, lower = more trypsin selective
Protocol: as §1, §2, §3

human Factor XIa = biological target: T4, human Factor XIa (Homo sapiens, UniProt P03951); experiment: Factor XIa assay (S-2366 substrate); assay type: biochemical; details: for IC50: 30 min preincubation, room temperature, tested 0.025-25 μM, Inact. = no inhibition at highest concentration; for Calculated % Selectivity XIa: [IC50 for Trypsin/IC50 for other enzyme]×100, lower = more trypsin selective
T4 construct: 50 μL of 5 nM human Factor XIa
Protocol: as §1, §2, §3

[2] = biological target: T5, Activated human Protein C (Homo sapiens, UniProt P04070); experiment: Protein C assay (Pefachrome PC substrate); assay type: biochemical; details: for Calculated % Selectivity Protein C: [IC50 for Trypsin/IC50 for other enzyme]×100, lower = more trypsin selective
T5 construct: from tissue
Protocol: as §1, §2
Enzyme activity was determined using as substrate, Pefachrome PC [δ-carbobenzoloxy-D-lysyl-L-prolyl-L-arginine-p-nitroanilide], purchased from Centerchem, Inc. The substrate was made up in deionized water prior to use. Protac used to activate Protein C was obtained from American Diagnostics.

human urokinase = biological target: T6, human urokinase (Homo sapiens, UniProt P00749); experiment: Urokinase assay (S-2444 substrate); assay type: biochemical; details: for Calculated % Selectivity UK: [IC50 for Trypsin/IC50 for other enzyme]×100, lower = more trypsin selective
T6 construct: 50 μL of 270 U/mL human urokinase
Protocol: as §4, §2
Enzyme activity was determined using as substrate S-2444 [L-pyroglutamyl-L-glycyl-L-arginine-p-nitroanilide hydrochloride], purchased from Kabi Diagnostica. The substrate was made up in deionized water prior to use.
as §5, with “μL” for “μL TBS and 50 μL”, “of 270 U/mL human urokinase” for “20 nM bovine thrombin”, “control) and 50 μL TBS,” for “control),”, “S-2444,” for “S-2238,”

bovine trypsin = biological target: T7, bovine trypsin (Bos taurus, UniProt P00760); experiment: Trypsin assay, IC50 (S-2222 substrate); assay type: biochemical; details: for IC50: 30 min preincubation, room temperature, tested 0.025-25 μM; for Calculated % Selectivity Trypsin: trypsin relative to itself (reference, 100 by definition)
T7 sequence (P00760 24-246): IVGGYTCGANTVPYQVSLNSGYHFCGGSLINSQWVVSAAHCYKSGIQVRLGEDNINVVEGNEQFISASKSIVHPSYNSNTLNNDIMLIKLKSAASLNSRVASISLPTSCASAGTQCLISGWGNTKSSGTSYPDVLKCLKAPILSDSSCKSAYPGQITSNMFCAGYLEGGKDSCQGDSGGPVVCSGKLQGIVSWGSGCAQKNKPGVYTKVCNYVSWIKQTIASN
Protocol: as §1, §2, §3

Factor VIIa:rTF complex = biological target: T8, Factor VIIa:rTF complex (Homo sapiens, UniProt P08709); experiment: Factor VIIa assay (S-2288 substrate); assay type: biochemical; details: for IC50 VIIA / IC50: 30 min preincubation, room temperature, tested 0.025-25 μM, Inact. = no inhibition at highest concentration; for Calculated % Selectivity VIIa: [IC50 for Trypsin/IC50 for other enzyme]×100, lower = more trypsin selective
T8 construct: 2.5 ml 400 nMhuman Factor VIIa
Protocol: as §4, §2
Enzyme activity was determined using as substrate, S-2288 [D-isoleucyl-L-prolyl-L-arginine-p-nitroanilide dihydrochloride], purchased from Kabi Diagnostica. The substrate was made up in deionized water prior to use.
Both solutions were then incubated for 30 minutes at room temperature before use in the assay.
The assay was run by combining in appropriate wells 50 μL inhibitor in TBS or TBS alone and 100 μL of Factor VIIa:rTF complex or background control, incubating this mixture for 30 minutes at room temperature, adding 50 μL of 2 mM S-2288, incubating for an additional 30 to 60 minutes at room temperature, then reading the absorbance of the wells at 405 nm on a microtiter plate reader set with background substraction at 650 nm.

[3] = biological target: bovine and human pancreatic trypsin; experiment: Potency: determination of inhibitor constant Ki against trypsin (S-2222 substrate, Dixon plot); assay type: biochemical; details: 37° C., TBS pH 7.4, 15 min preincubation, read-out: Ki For Peptide Aldehydes Against Trypsin
Protocol: The potency and specificity of the compounds of the present invention are determined by in vitro assay methods well known in the art. […] Specifically, the inhibitor constant, Ki, of the compounds can be determined by the method of Dixon, Biochem. J. 55:170 (1953). The specificity is assessed by determination of the concentration, IC50, of compound required to give 50% inhibition of the enzymatic activity of the coagulation enzymes, kallikrein, factor XIa, factor VIIa, factor Xa, thrombin; the fibrinolysis enzymes, plasmin, tissue plasminogen activator (tPA), and urokinase (UK), and the anticoagulation enzyme, protein C. Specificity is found when the concentration of compound giving 50% inhibition of trypsin is low relative to the concentration required to give like inhibition of the other enzymes.
Enzyme activity was determined using as substrate S-2222 [N-benzoyl-L-isoleucyl-L-glutamyl-glycyl-L-arginine-p-nitroanilide hydrochloride where glutamyl side chain is 50% carboxylic acid and 50% methyl ester], purchased from Kabi Diagnostica. The substrate was made up in deionized water prior to use.
A 96-well microtiter plate was prepared for use in the assay by incubating each well with 300 μL of 1% bovine serum albumin (in deionized water) for 30 minutes at 37° C., and washing three times with deionized water.
To each well was added 50 μL TBS (0.1M Tris, 0.14M NaCl, pH 7.4), 50 μL 2.5 nM trypsin and 50 μL peptide aldehyde in TBS or TBS alone. After incubating for 15 minutes at 37° C., 50 μL of S-2222 (at 37° C.) at a specified concentration was added to each well. After mixing, the rate of substramte turnover at 37° C. was measured for 30 minutes at 405 nm (generation of p-nitroaniline). The initial S-2222 concentrations in the assay mixture were 0.45, 0.23, 0.11, 0.056, and 0.028 mM.
Ki was determined graphically using a Dixon plot, as described in Dixon, Biochem. J. 55:170 (1953).

[4] = tested on: acute pancreatitis induced in animal models; details: literature reports; cited from earlier work
[5] = 30 min preincubation, room temperature, tested 0.025-25 μM, Inact. = no inhibition at highest concentration

T2 sequence (P03952 391-638 limits assumed): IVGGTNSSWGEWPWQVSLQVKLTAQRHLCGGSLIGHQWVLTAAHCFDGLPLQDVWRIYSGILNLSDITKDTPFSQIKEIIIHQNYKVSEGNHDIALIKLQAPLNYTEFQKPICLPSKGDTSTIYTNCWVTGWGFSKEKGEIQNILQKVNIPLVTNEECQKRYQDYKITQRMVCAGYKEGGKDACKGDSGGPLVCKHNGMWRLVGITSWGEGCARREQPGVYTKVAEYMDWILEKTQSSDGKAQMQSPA
T2 sequence (P03952 20-390 partner limits assumed): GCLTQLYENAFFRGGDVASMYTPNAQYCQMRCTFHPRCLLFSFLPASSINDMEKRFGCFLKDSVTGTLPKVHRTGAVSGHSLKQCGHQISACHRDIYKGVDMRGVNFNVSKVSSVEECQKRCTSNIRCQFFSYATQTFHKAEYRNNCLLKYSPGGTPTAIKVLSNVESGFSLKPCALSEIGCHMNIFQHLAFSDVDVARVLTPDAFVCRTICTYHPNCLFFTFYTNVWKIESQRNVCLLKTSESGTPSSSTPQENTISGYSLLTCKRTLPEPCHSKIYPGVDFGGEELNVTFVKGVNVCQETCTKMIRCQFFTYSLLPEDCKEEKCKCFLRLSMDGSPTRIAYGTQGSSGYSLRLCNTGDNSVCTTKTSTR
T5 sequence (P04070 212-461 limits assumed): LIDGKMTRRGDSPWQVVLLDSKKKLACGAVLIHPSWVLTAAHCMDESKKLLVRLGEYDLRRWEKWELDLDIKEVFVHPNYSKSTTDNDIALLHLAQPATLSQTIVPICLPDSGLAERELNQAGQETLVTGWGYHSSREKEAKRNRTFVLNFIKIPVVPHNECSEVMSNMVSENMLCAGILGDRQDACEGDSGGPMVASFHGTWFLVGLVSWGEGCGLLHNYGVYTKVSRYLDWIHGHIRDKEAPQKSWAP
T5 sequence (P04070 43-197 partner limits assumed): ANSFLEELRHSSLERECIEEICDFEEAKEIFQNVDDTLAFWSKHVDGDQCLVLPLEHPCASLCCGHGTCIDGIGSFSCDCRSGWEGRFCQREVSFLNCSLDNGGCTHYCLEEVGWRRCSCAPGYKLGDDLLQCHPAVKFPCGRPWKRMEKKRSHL
Chain of plasmin (P00747 581-810 limits assumed): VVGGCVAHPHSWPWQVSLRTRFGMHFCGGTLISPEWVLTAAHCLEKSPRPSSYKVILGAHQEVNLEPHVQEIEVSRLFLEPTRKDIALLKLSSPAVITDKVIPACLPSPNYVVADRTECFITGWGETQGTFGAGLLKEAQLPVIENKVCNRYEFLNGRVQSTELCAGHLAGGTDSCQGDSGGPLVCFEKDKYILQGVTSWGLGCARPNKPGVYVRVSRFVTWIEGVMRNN
Chain of plasmin (P00747 97-580 partner limits assumed): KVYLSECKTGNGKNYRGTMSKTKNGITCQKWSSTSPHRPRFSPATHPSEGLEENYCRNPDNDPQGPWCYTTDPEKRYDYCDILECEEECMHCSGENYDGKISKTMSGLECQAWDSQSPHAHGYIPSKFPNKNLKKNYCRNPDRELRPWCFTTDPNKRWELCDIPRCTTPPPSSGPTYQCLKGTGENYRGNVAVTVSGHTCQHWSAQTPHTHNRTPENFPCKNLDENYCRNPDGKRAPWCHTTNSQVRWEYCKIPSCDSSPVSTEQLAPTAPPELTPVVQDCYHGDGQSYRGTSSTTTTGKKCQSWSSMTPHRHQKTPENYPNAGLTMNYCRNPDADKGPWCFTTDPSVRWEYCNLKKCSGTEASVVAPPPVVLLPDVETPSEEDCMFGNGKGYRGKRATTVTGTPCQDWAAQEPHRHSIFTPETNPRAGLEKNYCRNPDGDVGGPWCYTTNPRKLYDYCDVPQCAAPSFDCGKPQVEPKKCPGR
Chain of recombinant tissue plasminogen activator (P00750 36-562): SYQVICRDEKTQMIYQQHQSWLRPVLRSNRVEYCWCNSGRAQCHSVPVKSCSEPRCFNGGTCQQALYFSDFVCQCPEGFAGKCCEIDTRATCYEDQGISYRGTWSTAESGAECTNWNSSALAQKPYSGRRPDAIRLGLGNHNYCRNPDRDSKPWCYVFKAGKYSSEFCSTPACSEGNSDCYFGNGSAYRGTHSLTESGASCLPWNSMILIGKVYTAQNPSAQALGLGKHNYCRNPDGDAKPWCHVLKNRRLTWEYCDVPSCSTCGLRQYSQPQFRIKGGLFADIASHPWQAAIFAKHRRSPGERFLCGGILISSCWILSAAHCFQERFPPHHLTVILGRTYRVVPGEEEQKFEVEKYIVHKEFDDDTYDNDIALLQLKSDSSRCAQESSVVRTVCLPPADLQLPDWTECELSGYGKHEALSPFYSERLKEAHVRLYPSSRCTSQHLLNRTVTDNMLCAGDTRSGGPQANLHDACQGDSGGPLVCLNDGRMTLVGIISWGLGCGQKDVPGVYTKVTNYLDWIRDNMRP
T1 sequence (P00742 235-488 limits assumed): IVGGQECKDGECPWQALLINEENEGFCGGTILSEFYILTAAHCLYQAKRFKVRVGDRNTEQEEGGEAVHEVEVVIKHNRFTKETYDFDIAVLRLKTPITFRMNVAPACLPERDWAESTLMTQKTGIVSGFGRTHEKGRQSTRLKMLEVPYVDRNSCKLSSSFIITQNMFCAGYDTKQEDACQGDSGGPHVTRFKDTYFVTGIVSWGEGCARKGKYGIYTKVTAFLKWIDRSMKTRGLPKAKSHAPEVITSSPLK
T1 sequence (P00742 41-179 partner limits assumed): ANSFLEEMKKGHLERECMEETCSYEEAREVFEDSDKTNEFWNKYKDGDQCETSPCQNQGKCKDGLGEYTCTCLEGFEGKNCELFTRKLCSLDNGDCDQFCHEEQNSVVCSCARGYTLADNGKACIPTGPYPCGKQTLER
T8 sequence (P08709 213-466 limits assumed): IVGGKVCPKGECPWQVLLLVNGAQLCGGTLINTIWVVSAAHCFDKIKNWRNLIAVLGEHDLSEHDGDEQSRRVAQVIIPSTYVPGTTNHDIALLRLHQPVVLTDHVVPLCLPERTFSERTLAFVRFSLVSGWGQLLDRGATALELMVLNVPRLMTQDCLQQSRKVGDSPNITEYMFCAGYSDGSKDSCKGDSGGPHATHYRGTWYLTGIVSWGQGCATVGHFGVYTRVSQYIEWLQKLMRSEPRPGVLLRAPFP
T8 sequence (P08709 61-212 partner limits assumed): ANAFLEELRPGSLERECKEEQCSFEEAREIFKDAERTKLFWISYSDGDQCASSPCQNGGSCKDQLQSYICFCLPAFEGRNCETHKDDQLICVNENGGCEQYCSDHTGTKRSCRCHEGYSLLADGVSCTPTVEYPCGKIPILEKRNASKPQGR
T8 sequence (P13726 33-295 partner): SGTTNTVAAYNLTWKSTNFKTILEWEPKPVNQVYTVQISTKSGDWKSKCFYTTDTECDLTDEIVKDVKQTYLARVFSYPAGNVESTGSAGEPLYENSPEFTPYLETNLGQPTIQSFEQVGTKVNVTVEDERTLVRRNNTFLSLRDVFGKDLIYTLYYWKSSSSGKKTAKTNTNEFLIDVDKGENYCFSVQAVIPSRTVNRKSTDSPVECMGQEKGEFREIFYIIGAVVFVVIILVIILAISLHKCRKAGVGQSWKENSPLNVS
T4 sequence (P03951 388-625 limits assumed): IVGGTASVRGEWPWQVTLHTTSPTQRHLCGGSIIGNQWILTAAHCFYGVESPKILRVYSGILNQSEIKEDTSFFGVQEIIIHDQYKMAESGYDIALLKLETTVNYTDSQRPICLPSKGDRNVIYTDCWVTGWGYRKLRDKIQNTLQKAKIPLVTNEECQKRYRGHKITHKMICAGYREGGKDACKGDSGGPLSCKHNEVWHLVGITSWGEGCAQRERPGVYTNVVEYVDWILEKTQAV
T4 sequence (P03951 19-387 partner limits assumed): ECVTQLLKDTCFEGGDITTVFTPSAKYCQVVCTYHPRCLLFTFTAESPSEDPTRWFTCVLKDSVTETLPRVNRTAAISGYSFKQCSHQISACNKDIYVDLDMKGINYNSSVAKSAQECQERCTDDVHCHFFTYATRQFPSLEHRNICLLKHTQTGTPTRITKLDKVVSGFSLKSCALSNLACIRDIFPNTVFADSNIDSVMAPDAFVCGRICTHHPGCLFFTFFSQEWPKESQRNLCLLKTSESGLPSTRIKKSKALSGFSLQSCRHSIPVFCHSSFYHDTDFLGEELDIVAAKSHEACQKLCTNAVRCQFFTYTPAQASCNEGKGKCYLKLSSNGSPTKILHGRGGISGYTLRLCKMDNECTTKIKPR

Compound	IC50 [1]	Calculated % Selectivity tPA [1]	IC50 (human Factor Xa; [5])	Calculated % Selectivity Xa (human Factor Xa)	IC50 (human kallekrein)	Calculated % Selectivity Kallikrein (human kallekrein)	IC50 (bovine thrombin; [5])	Calculated % Selectivity Thrombin (bovine thrombin)	IC50 (plasmin)	Calculated % Selectivity Plasmin (plasmin)	IC50 (human Factor XIa)	Calculated % Selectivity XIa (human Factor XIa)	IC50 [2, 5]	Calculated % Selectivity Protein C [2]	IC50 (human urokinase; [5])	Calculated % Selectivity UK (human urokinase)	IC50 (bovine trypsin)	Calculated % Selectivity Trypsin (bovine trypsin)	Calculated % Selectivity VIIa (Factor VIIa:rTF complex)	IC50 (Factor VIIa:rTF complex)	further results
CC(C)COC(=O)NC(CC(=O)O)C(=O)N1CCCC1C(=O)NC(C=O)CCCN=C(N)N [Compound 10, N-isobutyloxycarbonyl-L-Asp-L-Pro-L-argininal]	> 25 µM	< 0.1%	2 µM	< 1.3%	8 µM	< 0.3%	9 µM	< 0.28%	1.2 µM	< 2%	13 µM	< 0.19%	> 25 µM	< 0.1%	> 25 µM	< 0.1%	< 0.025 µM	100%	0%	–	IC50 VIIA (Factor VIIa:rTF complex): Inact.
CC(C)(C)OC(=O)N[C@H](CC(=O)O)C(=O)N1CCC[C@H]1C(=O)N[C@H](C=O)CCCNC(=N)N [Compound 12, N-t-buyloxycarbonyl-D-Asp-L-Pro-L-argininal] (Boc-[dD]-Pro-Arg-aldehyde)	> 25 µM	< 0.3%	> 25 µM	< 0.34%	> 25 µM	< 0.34%	–	0%	1.2 µM	7%	> 25 µM	< 0.34%	> 25 µM	< 0.3%	17 µM	0.5%	0.084 µM	100%	0%	–	Ki [3]: 0.045 µM; IC50 Thrombin (bovine thrombin; [5]): Inact.; IC50 VIIA (Factor VIIa:rTF complex): Inact.
N=C(N)c1ccc2cc(OC(=O)c3ccc(N=C(N)N)cc3)ccc2c1 [Futhan, 6-amidino-2-naphthyl-4-guanidino benzoate dimethanesulfonate, reference compound]	0.37 µM	–	6 µM	–	< 0.025 µM	–	0.21 µM	–	–	–	< 0.025 µM	–	0.084 µM	–	–	–	< 0.025 µM	–	–	1.2 µM	efficacy in the treatment of acute pancreatitis induced in animal models [4]: effective
N=C(N)NCCC[C@@H](C=O)NC(=O)[C@@H]1CCCN1C(=O)[C@H](CC(=O)O)NC(=O)OC12CC3CC(CC(C3)C1)C2 [Compound 11, N-adamantyloxycarbonyl-L-AsP-L-Pro-L-argininal]	> 25 µM	< 0.1%	0.3 µM	< 0.83%	2 µM	< 1.3%	10 µM	< 0.25%	1.1 µM	< 2%	6 µM	< 0.42%	> 25 µM	< 0.1%	19 µM	< 0.1%	< 0.025 µM	100%	< 0.1%	> 25 µM	Ki [3]: 0.0002 µM
CN(C)C(=O)COC(=O)Cc1ccc(OC(=O)c2ccc(NC(=N)N)cc2)cc1.CS(=O)(=O)O [Foy-305, camostate]	–	–	–	–	–	–	–	–	–	–	–	–	–	–	–	–	–	–	–	–	efficacy in the treatment of acute pancreatitis induced in animal models [4]: effective to varying degrees
CC(C)(C)OC(=O)N[C@@H](CCC(=O)O)C(=O)N1CCC[C@H]1C(=O)N[C@H](C=O)CCCNC(=N)N [Compound 8, N-t-butyloxycarbonyl-L-Glu-L-Pro-L-argininal] (Boc-Glu-Pro-Arg-aldehyde)	–	0%	–	0%	6 µM	0.10%	14 µM	0.04%	0.6 µM	1%	4 µM	0.15%	–	0%	9 µM	0.07%	0.006 µM	100%	< 0.02%	> 25 µM	IC50 tPA [1]: Inact.; Ki [3]: 0.0014 µM; IC50 Xa (human Factor Xa; [5]): Inact.; IC50 Protein C [2, 5]: Inact.
CC(=O)N[C@@H](CC(C)C)C(=O)N[C@@H](CC(C)C)C(=O)N[C@H](C=O)CCCNC(=N)N [Leupeptin, reference compound]	–	–	25 µM	–	4 µM	–	20 µM	–	8 µM	–	11 µM	–	> 25 µM	–	–	–	1.7 µM	–	–	> 25 µM	IC50 tPA [1]: Inact.; IC50 UK (human urokinase; [5]): Inact.
